Test results taken from PubChem BioAssay (NCI).
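Exposure lasted 48 hours, with cells grown in 96-well plates and compounds tested at five concentrations. Definition used: TGI = concentration required for complete inhibition of growth.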

Experiments:
Experiment in all cases: NCI-60 cell line screen, 48 h
MALME-3M melanoma = system: MALME-3M melanoma
CAKI-1 renal = system: CAKI-1 renal
PC-3 prostate = system: PC-3 prostate
M14 melanoma = system: M14 melanoma
SF-539 CNS = system: SF-539 CNS
HCT-15 colon = system: HCT-15 colon
RXF 393 renal = system: RXF 393 renal
HT29 colon = system: HT29 colon
MDA-MB-435 = system: MDA-MB-435
HL-60(TB) leukemia = system: HL-60(TB) leukemia
SNB-19 CNS = system: SNB-19 CNS
TK-10 renal = system: TK-10 renal
SF-295 CNS = system: SF-295 CNS
COLO 205 colon = system: COLO 205 colon
OVCAR-5 ovarian = system: OVCAR-5 ovarian
DU-145 prostate = system: DU-145 prostate
K-562 leukemia = system: K-562 leukemia
MDA-MB-231 breast = system: MDA-MB-231 breast
RPMI-8226 leukemia = system: RPMI-8226 leukemia
NCI-H460 lung = system: NCI-H460 lung
SN12C renal = system: SN12C renal
SR leukemia = system: SR leukemia
KM12 colon = system: KM12 colon
HOP-92 NSCLC = system: HOP-92 NSCLC
OVCAR-4 ovarian = system: OVCAR-4 ovarian
SF-268 CNS = system: SF-268 CNS
HOP-62 NSCLC = system: HOP-62 NSCLC
A549 NSCLC = system: A549 NSCLC
UACC-62 melanoma = system: UACC-62 melanoma
SK-MEL-28 melanoma = system: SK-MEL-28 melanoma
T-47D breast = system: T-47D breast
CCRF-CEM leukemia = system: CCRF-CEM leukemia
U251 CNS = system: U251 CNS
SK-MEL-5 melanoma = system: SK-MEL-5 melanoma
MDA-N = system: MDA-N
A498 renal = system: A498 renal
BT-549 breast = system: BT-549 breast
EKVX NSCLC = system: EKVX NSCLC
SW-620 colon = system: SW-620 colon
HS 578T breast = system: HS 578T breast
OVCAR-3 ovarian = system: OVCAR-3 ovarian
MCF7 breast = system: MCF7 breast
786-0 renal = system: 786-0 renal
HCC-2998 colon = system: HCC-2998 colon
IGROV1 ovarian = system: IGROV1 ovarian
HCT-116 colon = system: HCT-116 colon
MOLT-4 leukemia = system: MOLT-4 leukemia
NCI/ADR-RES ovarian = system: NCI/ADR-RES ovarian
SK-MEL-2 melanoma = system: SK-MEL-2 melanoma
LOX IMVI melanoma = system: LOX IMVI melanoma
NCI-H23 lung = system: NCI-H23 lung
UACC-257 melanoma = system: UACC-257 melanoma
OVCAR-8 ovarian = system: OVCAR-8 ovarian
SK-OV-3 ovarian = system: SK-OV-3 ovarian
NCI-H226 lung = system: NCI-H226 lung
ACHN renal = system: ACHN renal
NCI-H522 lung = system: NCI-H522 lung
UO-31 renal = system: UO-31 renal
SNB-75 CNS = system: SNB-75 CNS

Compound: COc1ccc(Nc2nc(N)c(C(=O)c3cccs3)s2)cc1
- TGI (MALME-3M melanoma): 64.8 µM
- TGI (CAKI-1 renal): > 100 µM
- TGI (PC-3 prostate): > 60.2 µM
- TGI (M14 melanoma): 34.6 µM
- TGI (SF-539 CNS): 19.5 µM
- TGI (HCT-15 colon): > 49.1 µM
- TGI (RXF 393 renal): 33.8 µM
- TGI (HT29 colon): > 41.4 µM
- TGI (MDA-MB-435): 22.8 µM
- TGI (HL-60(TB) leukemia): > 22.8 µM
- TGI (SNB-19 CNS): > 64.8 µM
- TGI (TK-10 renal): 24.3 µM
- TGI (SF-295 CNS): > 100 µM
- TGI (COLO 205 colon): 21.6 µM
- TGI (OVCAR-5 ovarian): > 79.7 µM
- TGI (DU-145 prostate): 36.3 µM
- TGI (K-562 leukemia): > 100 µM
- TGI (MDA-MB-231 breast): > 80.8 µM
- TGI (RPMI-8226 leukemia): 21.7 µM
- TGI (NCI-H460 lung): 11.1 µM
- TGI (SN12C renal): > 75.6 µM
- TGI (SR leukemia): 5.88 µM
- TGI (KM12 colon): 15.9 µM
- TGI (HOP-92 NSCLC): 89.3 µM
- TGI (OVCAR-4 ovarian): 48.1 µM
- TGI (SF-268 CNS): > 100 µM
- TGI (HOP-62 NSCLC): > 67.7 µM
- TGI (A549 NSCLC): > 47.8 µM
- TGI (UACC-62 melanoma): > 54.2 µM
- TGI (SK-MEL-28 melanoma): > 95.7 µM
- TGI (T-47D breast): > 64.1 µM
- TGI (CCRF-CEM leukemia): 12.8 µM
- TGI (U251 CNS): > 100 µM
- TGI (SK-MEL-5 melanoma): 12.8 µM
- TGI (MDA-N): > 82.4 µM
- TGI (A498 renal): 40.5 µM
- TGI (BT-549 breast): > 100 µM
- TGI (EKVX NSCLC): > 75 µM
- TGI (SW-620 colon): > 100 µM
- TGI (HS 578T breast): > 61.9 µM
- TGI (OVCAR-3 ovarian): > 32.4 µM
- TGI (MCF7 breast): 24.9 µM
- TGI (786-0 renal): > 56.6 µM
- TGI (HCC-2998 colon): 8.85 µM
- TGI (IGROV1 ovarian): 41.5 µM
- TGI (HCT-116 colon): > 36.5 µM
- TGI (MOLT-4 leukemia): 17.2 µM
- TGI (NCI/ADR-RES ovarian): > 100 µM
- TGI (SK-MEL-2 melanoma): > 51.4 µM
- TGI (LOX IMVI melanoma): > 100 µM
- TGI (NCI-H23 lung): > 100 µM
- TGI (UACC-257 melanoma): 31.3 µM
- TGI (OVCAR-8 ovarian): > 100 µM
- TGI (SK-OV-3 ovarian): > 100 µM
- TGI (NCI-H226 lung): 19.2 µM
- TGI (ACHN renal): > 100 µM
- TGI (NCI-H522 lung): > 100 µM
- TGI (UO-31 renal): > 41.1 µM

Compound: CCC[C@@H]1C(=O)N=C(N)N1C(=O)OCc1ccccc1
- TGI (SNB-75 CNS): > 100 µM
- TGI (MALME-3M melanoma): > 100 µM
- TGI (CAKI-1 renal): > 100 µM
- TGI (PC-3 prostate): > 100 µM
- TGI (HCT-15 colon): > 100 µM
- TGI (RXF 393 renal): > 100 µM
- TGI (HT29 colon): > 100 µM
- TGI (MDA-MB-435): > 100 µM
- TGI (HL-60(TB) leukemia): > 100 µM
- TGI (SNB-19 CNS): > 100 µM
- TGI (TK-10 renal): > 100 µM
- TGI (SF-295 CNS): > 100 µM
- TGI (COLO 205 colon): > 100 µM
- TGI (OVCAR-5 ovarian): > 100 µM
- TGI (DU-145 prostate): > 100 µM
- TGI (K-562 leukemia): > 100 µM
- TGI (MDA-MB-231 breast): > 100 µM
- TGI (RPMI-8226 leukemia): > 100 µM
- TGI (NCI-H460 lung): > 100 µM
- TGI (SN12C renal): > 100 µM
- TGI (SR leukemia): > 100 µM
- TGI (KM12 colon): > 100 µM
- TGI (OVCAR-4 ovarian): > 100 µM
- TGI (SF-268 CNS): > 100 µM
- TGI (HOP-62 NSCLC): > 100 µM
- TGI (UACC-62 melanoma): > 100 µM
- TGI (SK-MEL-28 melanoma): > 100 µM
- TGI (U251 CNS): > 100 µM
- TGI (SK-MEL-5 melanoma): > 100 µM
- TGI (MDA-N): > 100 µM
- TGI (A498 renal): > 100 µM
- TGI (BT-549 breast): > 100 µM
- TGI (EKVX NSCLC): > 100 µM
- TGI (SW-620 colon): > 100 µM
- TGI (HS 578T breast): > 100 µM
- TGI (OVCAR-3 ovarian): > 100 µM
- TGI (MCF7 breast): > 100 µM
- TGI (786-0 renal): > 100 µM
- TGI (HCC-2998 colon): > 100 µM
- TGI (IGROV1 ovarian): > 100 µM
- TGI (HCT-116 colon): > 100 µM
- TGI (MOLT-4 leukemia): > 100 µM
- TGI (NCI/ADR-RES ovarian): > 100 µM
- TGI (SK-MEL-2 melanoma): > 100 µM
- TGI (LOX IMVI melanoma): > 100 µM
- TGI (NCI-H23 lung): > 100 µM
- TGI (UACC-257 melanoma): > 100 µM
- TGI (OVCAR-8 ovarian): > 100 µM
- TGI (NCI-H226 lung): > 100 µM
- TGI (ACHN renal): > 100 µM
- TGI (NCI-H522 lung): > 100 µM
- TGI (UO-31 renal): > 100 µM
